The record followed here is paper PMC6271077, “Synthesis, Anticancer and Antibacterial Activity of Salinomycin N-Benzyl Amides” (Molecules, 2014).

One assay deals with LoVo/dx. Nature of the assay: Antiproliferative SRB assay, LoVo/dx. Type of assay: cell-based, human. To be noted: for IC50: Homo sapiens, LoVo/DX, 72 h, read-out: IC50 LoVo/dx; for IR LoVo/DX: IR = IC50 LoVo/dx / IC50 LoVo; for SI LoVo/DX: SI = IC50 BALB/3T3 / IC50 LoVo/dx.
In another assay the test system is S. aureus ATCC 6538. Nature of the assay: MIC microdilution. Type of assay: cell-based. The following applies: Staphylococcus aureus.
In assay [1] the test system is S. epidermidis ATCC 35984. Nature of the assay: MIC microdilution. To be noted: Staphylococcus epidermidis. The assay is classed as cell-based.
For a further assay, the system named is MRSA 456/11. Nature of the assay: MIC microdilution, hospital MRSA. Type of assay: cell-based. To be noted: Staphylococcus aureus.
The next assay has as its system MRSA 514/11. Nature of the assay: MIC microdilution, hospital MRSA. The assay is classed as cell-based. To be noted: Staphylococcus aureus.
Another assay relates to MRSA 522/12. Nature of the assay: MIC microdilution, hospital MRSA. Type of assay: cell-based. To be noted: Staphylococcus aureus.
The test system of the next assay is MRSA 573/12. Nature of the assay: MIC microdilution, hospital MRSA. The assay is classed as cell-based. To be noted: Staphylococcus aureus.
Another assay has as its system MRSA 585/12. Nature of the assay: MIC microdilution, hospital MRSA. The assay is classed as cell-based. The following applies: Staphylococcus aureus.
Another assay relates to MRSE 459/11. Nature of the assay: MIC microdilution, hospital MRSE. Type of assay: cell-based. The following applies: Staphylococcus epidermidis.
In another assay the test system is MRSE 461/11. Nature of the assay: MIC microdilution, hospital MRSE. The following applies: Staphylococcus epidermidis. The assay is classed as cell-based.
Another assay deals with MRSE 466/11. Nature of the assay: MIC microdilution, hospital MRSE. The assay is classed as cell-based. The following applies: Staphylococcus epidermidis.
In another assay the test system is MRSE 468/11. Nature of the assay: MIC microdilution, hospital MRSE. The assay is classed as cell-based. To be noted: Staphylococcus epidermidis.
In a further assay the test system is MRSE 470/11. Nature of the assay: MIC microdilution, hospital MRSE. Type of assay: cell-based. The following applies: Staphylococcus epidermidis.
The next assay concerns MRSE 489/11. Nature of the assay: MIC microdilution, hospital MRSE. Type of assay: cell-based. The following applies: Staphylococcus epidermidis.
The subject of assay [2] is M. tuberculosis standard H37Rv strain. Nature of the assay: Tuberculostatic activity, test-tube dilution. To be noted: Mycobacterium tuberculosis, read-out: MIC M. tuberculosis Standard H37Rv Strain. The assay is classed as cell-based.
For assay [3], the system named is M. tuberculosis isoniazid-sensitive strain (spec. 192). Nature of the assay: Tuberculostatic activity, test-tube dilution. The following applies: Mycobacterium tuberculosis, read-out: MIC M. tuberculosis Isoniazid-Sensitive Strain. The assay is classed as cell-based.
Assay [4] has as its system standard and "wild" strains of M. tuberculosis. Nature of the assay: Tuberculostatic activity, all M. tuberculosis strains (overall). Type of assay: cell-based. The following applies: Mycobacterium tuberculosis, H37RV, read-out: MIC (over M. tuberculosis strains).
Setting [5] is: ATCC6538, S. aureus ATCC 6538, 18 h, 35 °C, read-out: MIC.
[6] abbreviates: ATCC35984, S. epidermidis ATCC 35984, 18 h, 35 °C, read-out: MIC.
[7] abbreviates: hospital MRSA strain 456/11, read-out: MIC.
Setting [8] is: hospital MRSA strain 514/11, read-out: MIC.
The mark [9] stands for this setting: hospital MRSA strain 522/12, read-out: MIC.
The mark [10] stands for this setting: hospital MRSA strain 573/12, read-out: MIC.
[11] abbreviates: hospital MRSA strain 585/12, read-out: MIC.
Setting [12] is: hospital MRSE strain 459/11, read-out: MIC.
The mark [13] stands for this setting: hospital MRSE strain 461/11, read-out: MIC.
The mark [14] stands for this setting: hospital MRSE strain 466/11, read-out: MIC.
Where [15] appears, read: hospital MRSE strain 468/11, read-out: MIC.
Setting [16] is: hospital MRSE strain 470/11, read-out: MIC.
Where [17] appears, read: hospital MRSE strain 489/11, read-out: MIC.

≈ marks a conversion by molar mass, not a printed value. Like-named read-outs stand apart in the source and are kept apart here.

With `CC[C@H](C(=O)NCc1ccc(F)cc1)C1CC[C@H](C)C([C@@H](C)[C@H](O)[C@H](C)C(=O)[C@H](CC)C2O[C@]3(C=C[C@@H](O)C4(CC[C@@](C)(C5CC[C@](O)(CC)[C@H](C)O5)O4)O3)[C@H](C)C[C@@H]2C)O1` (stereo partly drawn) [F-p], in the assay with LoVo/dx, the IC50 amounted to 3.29 ± 0.91 µM. Also, in the assay with LoVo/dx, the “IR LoVo/DX” value stood at 0.53. Besides, the “SI LoVo/DX” value in the assay with LoVo/dx stood at 2.62. The MIC with S. aureus ATCC 6538 (setting [5]) was 16 µg/mL (≈ 18.6 µM); in assay [1] (setting [6]) it was 32 µg/mL (≈ 37.3 µM); in the assay on MRSA 456/11 (setting [7]), 16 µg/mL (≈ 18.6 µM); in the assay on MRSA 514/11 (setting [8]) it was 32 µg/mL (≈ 37.3 µM); with MRSA 522/12 (setting [9]), 32 µg/mL (≈ 37.3 µM); in the assay on MRSA 573/12 (setting [10]) it was 64 µg/mL (≈ 74.6 µM). For the same compound, the MIC in the assay with MRSA 585/12 (setting [11]) amounted to 32 µg/mL (≈ 37.3 µM); with MRSE 459/11 (setting [12]), 32 µg/mL (≈ 37.3 µM); in the assay on MRSE 461/11 (setting [13]) it was 32 µg/mL (≈ 37.3 µM); in the assay on MRSE 466/11 (setting [14]), 16 µg/mL (≈ 18.6 µM); in the assay on MRSE 468/11 (setting [15]), 64 µg/mL (≈ 74.6 µM); in the assay on MRSE 470/11 (setting [16]), 32 µg/mL (≈ 37.3 µM). Further, the MIC in the assay with MRSE 489/11 (setting [17]) was found to be 32 µg/mL (≈ 37.3 µM); in [2], 50 µg/mL (≈ 58.3 µM); in [3], 50 µg/mL (≈ 58.3 µM); in [4] it was 50 µg/mL (≈ 58.3 µM).
In the case of `CC[C@H](C(=O)NCc1ccc([N+](=O)[O-])cc1)C1CC[C@H](C)C([C@@H](C)[C@H](O)[C@H](C)C(=O)[C@H](CC)C2O[C@]3(C=C[C@@H](O)C4(CC[C@@](C)(C5CC[C@](O)(CC)[C@H](C)O5)O4)O3)[C@H](C)C[C@@H]2C)O1` (stereo partly drawn) [NO2-p], the IC50 in the assay with LoVo/dx was 20.4 ± 8.63 µM. Besides, in the assay with LoVo/dx, the “IR LoVo/DX” value is listed as 1.53. The “SI LoVo/DX” value in the assay with LoVo/dx amounted to 0.34. Further, the MIC in the assay on S. aureus ATCC 6538 (setting [5]) is 128 µg/mL (≈ 145 µM); in [1] (setting [6]), 128 µg/mL (≈ 145 µM); with MRSA 456/11 (setting [7]) it was 128 µg/mL (≈ 145 µM); with MRSA 514/11 (setting [8]), 128 µg/mL (≈ 145 µM); in the assay on MRSA 522/12 (setting [9]), 128 µg/mL (≈ 145 µM); in the assay with MRSA 573/12 (setting [10]) it was 256 µg/mL (≈ 289 µM). In addition, the MIC was 256 µg/mL (≈ 289 µM) in the assay with MRSA 585/12 (setting [11]); 128 µg/mL (≈ 145 µM) with MRSE 459/11 (setting [12]); 256 µg/mL (≈ 289 µM) in the assay with MRSE 461/11 (setting [13]); 256 µg/mL (≈ 289 µM) with MRSE 466/11 (setting [14]); 128 µg/mL (≈ 145 µM) in the assay on MRSE 468/11 (setting [15]); 256 µg/mL (≈ 289 µM) in the assay on MRSE 470/11 (setting [16]). Besides, the MIC in the assay with MRSE 489/11 (setting [17]) amounted to 256 µg/mL (≈ 289 µM); in assay [2], 50 µg/mL (≈ 56.5 µM); in [3] it was 50 µg/mL (≈ 56.5 µM); in assay [4], 50 µg/mL (≈ 56.5 µM).
Regarding `CC[C@@H](C(=O)[C@@H](C)[C@@H](O)[C@H](C)[C@@H]1O[C@@H]([C@@H](CC)C(=O)O)CC[C@@H]1C)[C@H]1O[C@]2(C=C[C@@H](O)[C@]3(CC[C@@](C)([C@H]4CC[C@](O)(CC)[C@H](C)O4)O3)O2)[C@H](C)C[C@@H]1C` [SAL, Salinomycin], the IC50 with LoVo/dx stood at 0.81 ± 0.32 µM. Also, in the assay on LoVo/dx, the “IR LoVo/DX” value is listed as 1.72. The “SI LoVo/DX” value in the assay with LoVo/dx amounted to 16.07. In addition, the MIC against S. aureus ATCC 6538 (ATCC6538, 18 h) came out at 2 µg/mL (≈ 2.66 µM); in assay [1] (ATCC35984, 18 h), 2 µg/mL (≈ 2.66 µM); with MRSA 456/11 (MRSA) it was 16 µg/mL (≈ 21.3 µM); against MRSA 514/11 (MRSA) it was 8 µg/mL (≈ 10.7 µM); against MRSA 522/12 (MRSA) it was 16 µg/mL (≈ 21.3 µM); against MRSA 573/12 (MRSA), 16 µg/mL (≈ 21.3 µM). Moreover, the MIC is 16 µg/mL (≈ 21.3 µM) in the assay on MRSA 585/12 (MRSA); 16 µg/mL (≈ 21.3 µM) against MRSE 459/11 (MRSE); 16 µg/mL (≈ 21.3 µM) against MRSE 461/11 (MRSE); 8 µg/mL (≈ 10.7 µM) against MRSE 466/11 (MRSE); 16 µg/mL (≈ 21.3 µM) against MRSE 468/11 (MRSE); 16 µg/mL (≈ 21.3 µM) with MRSE 470/11 (MRSE). Moreover, the MIC was 16 µg/mL (≈ 21.3 µM) against MRSE 489/11 (MRSE), 25 µg/mL (≈ 33.3 µM) in assay [2], 25 µg/mL (≈ 33.3 µM) in assay [3] and 25 to 50 µg/mL (≈ 33.3 to 66.6 µM) in [4].
